Consider three compounds from PubChem BioAssay (NCI).

One may read the GI50 as the concentration giving 50% growth inhibition. A word on the TGI: it is the concentration at which net growth stops. Low values mean more potent growth arrest, high ones less potent growth arrest.

Among the test systems are ACHN renal; HCC-2998 colon; SF-539 CNS; HOP-92 NSCLC; SK-MEL-28 melanoma; T-47D breast; SK-OV-3 ovarian; CAKI-1 renal; 786-0 renal; MOLT-4 leukemia; LOX IMVI melanoma; A498 renal; SK-MEL-2 melanoma; MALME-3M melanoma.
Holding throughout (assay): DTP human tumour cell line panel, 48 h

Where “and” joins values, the source holds several entries; their conditions need not be identical. Equal values may be shown once.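 Method: 48-hour compound exposure of cells in 96-well plates, five concentrations, linear interpolation of endpoints. GI50 marks 50% less growth. TGI denotes the concentration required for complete inhibition of growth.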 Where a SMILES comes first, the peptide text is derived from it. The star is where a group is joined. Cbz = O=C(OCc1ccccc1)*

Turning to `CC(=O)c1ccc2c(c1)C(=O)c1sc(C(C)=O)cc1C2=O`, the 50% growth inhibitory concentration (GI50) is 0.405 µM with ACHN renal; 1.71 µM with HCC-2998 colon; 1.85 µM in the assay with SK-MEL-28 melanoma; 1.73 µM with T-47D breast; 5.66 µM in the assay on SK-OV-3 ovarian; 0.0664 µM in the assay with MOLT-4 leukemia. For the same compound, the TGI with ACHN renal is 1.54 µM and 1.5 µM; with SF-539 CNS, 1.86 µM; in the assay with HOP-92 NSCLC, 50 µM; in the assay with SK-MEL-28 melanoma, 14.2 µM and 3.61 µM; in the assay with T-47D breast, 3.01 µM and 4.31 µM; in the assay with SK-OV-3 ovarian it was 14.3 µM and 21.4 µM. Besides, the TGI is 4.48 µM in the assay with CAKI-1 renal; 50 µM with 786-0 renal; 2.12 µM with LOX IMVI melanoma; 50 µM with A498 renal; 4.23 µM and 2.98 µM in the assay on SK-MEL-2 melanoma; 1.2 µM in the assay on MALME-3M melanoma.

Regarding `CC(=O)OC(CCC1(C)OC1COc1ccc(CCNC(=O)C=C(C)C)cc1)C(C)(C)OC(C)=O` (stereo unspecified), the TGI with ACHN renal, in the assay with HCC-2998 colon, in the assay on SF-539 CNS, with HOP-92 NSCLC, in the assay on SK-MEL-28 melanoma and in the assay on T-47D breast was above 100 µM throughout. In addition, the TGI was above 100 µM in the assay with SK-OV-3 ovarian; above 100 µM with CAKI-1 renal; above 100 µM in the assay with 786-0 renal; 39.1 µM with MOLT-4 leukemia; above 100 µM in the assay on LOX IMVI melanoma; above 100 µM in the assay with A498 renal. The TGI in the assay with SK-MEL-2 melanoma and with MALME-3M melanoma was above 100 µM in each case.

Consider `CCOC(=O)CCC(NC(=O)OCc1ccccc1)C(=O)NC(CCC(=O)OCC)C(=O)OCC` (stereo unspecified) (Cbz-Glu(OEt)-Glu(OEt)-OEt; configuration not given here), for which the TGI in the assay with ACHN renal, in the assay on HCC-2998 colon, with SF-539 CNS, with HOP-92 NSCLC, with SK-MEL-28 melanoma and in the assay with T-47D breast was above 100 µM throughout. For the same compound, the concentration for total growth inhibition (TGI) in the assay with SK-OV-3 ovarian, in the assay on CAKI-1 renal, in the assay on 786-0 renal, in the assay on MOLT-4 leukemia, in the assay with LOX IMVI melanoma and in the assay with A498 renal was above 100 µM in each case. Moreover, the total growth inhibition concentration (TGI) with SK-MEL-2 melanoma and in the assay on MALME-3M melanoma was above 100 µM in each case.
